The values below come from PubChem BioAssay (NCI).

Among the test systems are SK-MEL-5 melanoma; UO-31 renal; NCI-H226 lung; OVCAR-5 ovarian; HT29 colon; UACC-257 melanoma; MDA-MB-231 breast; BT-549 breast; DU-145 prostate; SNB-19 CNS.
Test in all cases: inhibition of tumour cell growth, NCI panel, 48 h

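Where inhibition never reached the appropriate level, the endpoint shown equals the highest concentration tested. Otherwise, values were interpolated linearly from a five-concentration, 48-hour dose response in 96-well plates. The concentration for full growth arrest is given as TGI.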

As for `CC1(C)C2CCC(CN)(C2)C1N` (stereo not given), the TGI with SK-MEL-5 melanoma, in the experiment on UO-31 renal, in the experiment with NCI-H226 lung, with OVCAR-5 ovarian, in the experiment with HT29 colon and in the experiment with UACC-257 melanoma was above 100 µM throughout. The TGI in the experiment with MDA-MB-231 breast, in the experiment on BT-549 breast, in the experiment with DU-145 prostate and with SNB-19 CNS was above 100 µM throughout.
For `Nc1nc(I)nc2c1ncn2C1OC(COS(N)(=O)=O)C(O)C1O` (stereo not given), the TGI in the experiment with SK-MEL-5 melanoma is below 0.0113 µM; in the experiment with UO-31 renal, 0.0653 µM; in the experiment on NCI-H226 lung, below 0.0159 µM; in the experiment with OVCAR-5 ovarian it was 0.0189 µM; in the experiment with HT29 colon it was 0.0353 µM; in the experiment on UACC-257 melanoma, 0.0716 µM. Besides, the TGI with MDA-MB-231 breast was below 0.0238 µM; in the experiment with BT-549 breast, 0.103 µM; in the experiment on DU-145 prostate, below 0.0193 µM; in the experiment on SNB-19 CNS it was below 0.013 µM.
For `CC(=O)N(C(C)=O)n1c(Cc2ccc(Cl)cc2)n[nH]c1=O`, the TGI with SK-MEL-5 melanoma, in the experiment with UO-31 renal, in the experiment with NCI-H226 lung, in the experiment with OVCAR-5 ovarian, in the experiment with HT29 colon and with UACC-257 melanoma was above 100 µM in each case. The TGI in the experiment on MDA-MB-231 breast, in the experiment on BT-549 breast, with DU-145 prostate and with SNB-19 CNS was above 100 µM in each case.
As to `COC(=O)C1=C(O)C(C(=O)OC)[C@]2(O)[C@H](C(=O)OC)[C@H]1C[C@@H](c1ccc(OC)c(OC)c1)[C@H]2C(=O)OC` (stereo not given in full), the TGI in the experiment on SK-MEL-5 melanoma was above 100 µM; in the experiment on UO-31 renal, above 100 µM; with NCI-H226 lung, 29 µM; with OVCAR-5 ovarian it was above 100 µM; in the experiment on HT29 colon, above 100 µM; with UACC-257 melanoma, above 100 µM. The TGI was above 100 µM in the experiment on MDA-MB-231 breast, 83.7 µM in the experiment with BT-549 breast, 93.8 µM in the experiment on DU-145 prostate and 73.3 µM with SNB-19 CNS.
For the compound `N#Cc1c(=O)n(-c2ccccc2)c(O)c2c(N)n[nH]c12`, the TGI with SK-MEL-5 melanoma, in the experiment with UO-31 renal, in the experiment on NCI-H226 lung, in the experiment on OVCAR-5 ovarian, in the experiment on HT29 colon and with UACC-257 melanoma was above 100 µM throughout. The TGI with MDA-MB-231 breast, with BT-549 breast, with DU-145 prostate and in the experiment with SNB-19 CNS was above 100 µM throughout.
Consider `Cc1ccc(S(=O)(=O)c2ccsc2NC(=O)C(F)(F)F)cc1`, for which the TGI in the experiment on SK-MEL-5 melanoma was 44.4 µM; in the experiment on UO-31 renal, 96.1 µM; with NCI-H226 lung, above 100 µM; with OVCAR-5 ovarian, above 100 µM; in the experiment on HT29 colon it was above 100 µM; in the experiment with UACC-257 melanoma, above 100 µM. The TGI was 56.2 µM in the experiment on MDA-MB-231 breast, above 100 µM with BT-549 breast, above 100 µM in the experiment with DU-145 prostate and above 100 µM with SNB-19 CNS.
Consider `Nc1nc(Cl)c(CO)c(NCC2(CO)CC(CCc3ccccc3)C2)n1` (stereo not given), for which the TGI in the experiment on SK-MEL-5 melanoma was 39.4 µM; in the experiment with UO-31 renal, 68.8 µM; in the experiment with NCI-H226 lung, 36.3 µM; in the experiment on OVCAR-5 ovarian it was above 100 µM; in the experiment on HT29 colon it was 81.6 µM; in the experiment on UACC-257 melanoma, 32.4 µM. In addition, the TGI in the experiment on MDA-MB-231 breast is 39.1 µM; in the experiment on BT-549 breast it was 71.1 µM; with DU-145 prostate it was above 100 µM; with SNB-19 CNS it was above 100 µM.
As for `O=C1N=C(SC2OC(CO)C(O)C(O)C2O)S/C1=C\c1ccccc1` (stereo not given), the TGI with SK-MEL-5 melanoma, with UO-31 renal, in the experiment with NCI-H226 lung, in the experiment on OVCAR-5 ovarian, with HT29 colon and with UACC-257 melanoma was above 100 µM in each case. Moreover, the TGI with MDA-MB-231 breast, with BT-549 breast, in the experiment with DU-145 prostate and with SNB-19 CNS was above 100 µM in each case.
Regarding `Cc1cc(C)c2c(O)c(S(=O)(=O)c3ccc(Cl)cc3)c(=O)oc2c1`, the TGI with SK-MEL-5 melanoma, in the experiment with UO-31 renal, in the experiment on NCI-H226 lung, with OVCAR-5 ovarian, in the experiment on HT29 colon and in the experiment with UACC-257 melanoma was above 100 µM throughout. For the same compound, the TGI with MDA-MB-231 breast, in the experiment with BT-549 breast, in the experiment with DU-145 prostate and in the experiment on SNB-19 CNS was above 100 µM in each case.
For `CN(CCC(=O)O)C1=Nc2ccc(Cl)cc2C(c2ccccc2)=[N+]([O-])C1`, the TGI in the experiment on SK-MEL-5 melanoma, with UO-31 renal, with NCI-H226 lung, in the experiment on OVCAR-5 ovarian, with HT29 colon and in the experiment with UACC-257 melanoma was above 100 µM throughout. The TGI in the experiment with MDA-MB-231 breast, with BT-549 breast, with DU-145 prostate and in the experiment with SNB-19 CNS was above 100 µM each time.
On to `CCOC(=O)c1oc2cc3c(c4c2c1-c1ccccc1N4C)C=CC(C)(C)O3`, for which the TGI with SK-MEL-5 melanoma is 97.9 µM; in the experiment with UO-31 renal, 65.5 µM; in the experiment on NCI-H226 lung, 48.9 µM; in the experiment with OVCAR-5 ovarian, above 100 µM; with HT29 colon it was above 64 µM; in the experiment on UACC-257 melanoma it was above 100 µM. The TGI in the experiment with MDA-MB-231 breast was above 100 µM; with BT-549 breast it was 59.6 µM; in the experiment with DU-145 prostate it was above 70 µM; in the experiment on SNB-19 CNS it was above 54.9 µM.
On to `CN(C)c1ccc(/C=C2/NC(=S)NC2=O)cc1`, for which the TGI with SK-MEL-5 melanoma, in the experiment with UO-31 renal, in the experiment on NCI-H226 lung, with OVCAR-5 ovarian, in the experiment with HT29 colon and in the experiment on UACC-257 melanoma was above 100 µM each time. Moreover, the TGI with MDA-MB-231 breast, with BT-549 breast, in the experiment with DU-145 prostate and in the experiment with SNB-19 CNS was above 100 µM in each case.
